Source: BindingDB's records for doi:10.1111/cbdd.12443 (Northeastern University, 2015)
Counter-ions that a name gives are not always drawn.

Target: T1, Phosphodiesterase (Trypanosoma brucei, UniProt Q8WQX9)
T1 sequence (Q8WQX9 whole entry): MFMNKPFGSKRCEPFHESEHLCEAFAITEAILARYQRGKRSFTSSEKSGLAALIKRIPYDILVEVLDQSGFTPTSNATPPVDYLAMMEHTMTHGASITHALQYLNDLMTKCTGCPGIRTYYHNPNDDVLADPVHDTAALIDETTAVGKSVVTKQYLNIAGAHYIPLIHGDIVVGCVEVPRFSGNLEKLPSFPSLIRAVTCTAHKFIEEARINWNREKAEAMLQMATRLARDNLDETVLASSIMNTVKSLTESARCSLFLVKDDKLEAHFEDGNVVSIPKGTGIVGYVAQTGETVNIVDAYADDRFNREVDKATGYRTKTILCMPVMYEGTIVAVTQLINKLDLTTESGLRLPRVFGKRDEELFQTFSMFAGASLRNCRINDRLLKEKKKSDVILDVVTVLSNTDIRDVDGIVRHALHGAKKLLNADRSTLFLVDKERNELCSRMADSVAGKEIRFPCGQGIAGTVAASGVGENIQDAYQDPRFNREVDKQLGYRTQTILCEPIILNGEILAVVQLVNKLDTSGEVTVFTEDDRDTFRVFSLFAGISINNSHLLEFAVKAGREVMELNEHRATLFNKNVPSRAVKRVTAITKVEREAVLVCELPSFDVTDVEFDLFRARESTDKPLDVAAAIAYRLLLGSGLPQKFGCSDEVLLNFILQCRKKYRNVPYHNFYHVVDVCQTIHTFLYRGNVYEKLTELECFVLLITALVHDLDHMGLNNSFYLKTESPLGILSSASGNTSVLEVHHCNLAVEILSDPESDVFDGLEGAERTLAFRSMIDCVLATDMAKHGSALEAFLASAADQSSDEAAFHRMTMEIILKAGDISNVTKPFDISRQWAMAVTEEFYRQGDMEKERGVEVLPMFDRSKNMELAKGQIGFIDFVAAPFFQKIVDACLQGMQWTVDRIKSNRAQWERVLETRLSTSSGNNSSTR
Assay: TbrPDEB1 Enzyme Assay
Conditions: pH 7.4
Description: In short, recombinant TbrPDEB1 and TbrPDEB2 were assayed in 10 mM Tris pH 7.4, bovine serum albumin (0.2 mg/mL), 10 mM MgCl2, 25µM cAMP (Enzo Lifesciences) and an excess of 5 endonucleotidase (>1000U) at 37 °C. Excess amount of 5 endonucleotidase was determined by titration (Enzo Lifesciences). Reactions were terminated by the addition of BioMol green (Enzo Lifesciences) which was also used to detect changes in the level of phosphate. This was measured by absorbance at 620 nm using a Tecan Sunrise plate reader. […] Inhibitors were preincubated with the assay mixture for 5 min prior to the addition of substrate. Inhibition was determined by the change in the initial velocity relative to a vehicle only control for both compound screening and for the determination of IC50 values. Initial velocity was determined by linear regression and IC50 values were calculated

| IC50 [µM] | SMILES |
| --- | --- |
| 2.9 | COc1cccc(Nc2c(C(N)=O)cnc3c(C)cc(S(=O)(=O)c4cccc(C(=O)O)c4)cc23)c1 [3-(3-carbamoyl-4-(3-methoxyphenylamino)-8-methylquinolin-6-ylsulfonyl)benzoic acid (11)] |
| 31 | CNC(=O)c1cccc(S(=O)(=O)c2cc(C)c3ncc(C(N)=O)c(Nc4cccc(OC)c4)c3c2)c1 [4-(3-methoxyphenylamino)-8-methyl-6-(3-(methylcarbamoyl)phenylsulfonyl)quinoline-3-carboxamide (12b)] |
| 3.7 | COc1ccc(Nc2c(C(N)=O)cnc3c(C)cc(-c4ccc5cnn(C)c5c4)cc23)cc1C [4-(4-Methoxy-3-methylphenylamino)-8-methyl-6-(1-methyl-1H-indazol-6-yl)quinoline-3-carboxamide, formic acid salt (24f)] |
| 4.2 | CCOc1cccc(Nc2c(C(N)=O)cnc3c(C)cc(-c4ccc5cnn(C)c5c4)cc23)c1 [4-((3-Ethoxyphenyl)amino)-8-methyl-6-(1-methyl-1H-indazol-6-yl)quinoline-3-carboxamide (24c)] |
| 12 | COc1cccc(Nc2c(C(N)=O)cnc3ccc(-c4ccc5cnn(C)c5c4)cc23)c1 [4-((3-Methoxyphenyl)amino)-6-(1-methyl-1H-indazol-6-yl)quinoline-3-carboxamide (19b)] |
| 9 | COc1cccc(Nc2c(C(N)=O)cnc3c(C)cc(-c4cn[nH]c4)cc23)c1 [4-((3-Methoxyphenyl)amino)-8-methyl-6-(1H-pyrazol-4-yl)quinoline-3-carboxamide  (17j)] |
| 6 | COc1cccc(Nc2c(C(N)=O)cnc3c(C)cc(-c4cccc(-c5nnc(C)s5)c4)cc23)c1 [4-((3-Methoxyphenyl)amino)-8-methyl-6-(3-(5-methyl-1,3,4-thiadiazol-2-yl)phenyl) quinoline-3-carboxamide, formic acid salt (17o)] |
| 5.9 | COc1cccc(Nc2c(C(N)=O)cnc3c(C)cc(-c4cccc(-c5ncco5)c4)cc23)c1 [4-((3-Methoxyphenyl)amino)-8-methyl-6-(3-(oxazol-2-yl)phenyl)quinoline-3-carboxamide (17p)] |
| 12 | COc1cccc(Nc2c(C(N)=O)cnc3c(C)cc(-c4cccc(N5CCOCC5)c4)cc23)c1 [4-((3-Methoxyphenyl)amino)-8-methyl-6-(3-morpholinophenyl)quinoline-3-carboxamide (17s)] |
| 5.9 | Cc1cc(-c2cccc(-c3ncco3)c2)cc2c(NC3CCCC3)c(C(N)=O)cnc12 [4-(Cyclopentylamino)-8-methyl-6-(3-(oxazol-2-yl)phenyl)quinoline-3-carboxamide (28)] |
| 5.9 | COc1cccc(Nc2c(C(N)=O)cnc3c(C)cc(-c4ccc5[nH]ccc5c4)cc23)c1 [6-(1H-Indol-5-yl)-4-((3-methoxyphenyl)amino)-8-methylquinoline-3-carboxamide (17t)] |
| 6.7 | COc1cccc(Nc2c(C(N)=O)cnc3c(C)cc(-c4cccc(-c5nnn[nH]5)c4)cc23)c1 [6-(3-(1H-Tetrazol-5-yl)phenyl)-4-((3-methoxyphenyl)amino)-8-methylquinoline-3-carboxamide (17m)] |
| 23 | COc1cccc(Nc2c(C(N)=O)cnc3c(C)cc(-c4cccc(N)c4)cc23)c1 [6-(3-Aminophenyl)-4-((3-methoxyphenyl)amino)-8-methylquinoline-3-carboxamide (17f)] |
| 3.7 | CCc1cc(-c2ccc3cnn(C)c3c2)cc2c(Nc3cccc(OC)c3)c(C(N)=O)cnc12 [8-Ethyl-4-((3-methoxyphenyl)amino)-6-(1-methyl-1H-indazol-6-yl)quinoline-3-carboxamide (19c)] |
| 3.5 | Cc1cccc(Nc2c(C(N)=O)cnc3c(C)cc(-c4ccc5cnn(C)c5c4)cc23)c1 [8-Methyl-6-(1-methyl-1H-indazol-6-yl)-4-(m-tolylamino)quinoline-3-carboxamide (24e)] |
| 16 | COC(=O)c1cccc(Nc2cc(C)c3ncc(C(N)=O)c(Nc4cccc(OC)c4)c3c2)c1 [Methyl 3-(3-carbamoyl-4-(3-methoxyphenylamino)-8-methylquinolin-6-ylamino)benzoate (13)] |
| 3.5 | COC(=O)c1cccc(S(=O)(=O)c2cc(C)c3ncc(C(N)=O)c(Nc4cccc(OC)c4)c3c2)c1 [Methyl 3-(3-carbamoyl-4-(3-methoxyphenylamino)-8-methylquinolin-6-ylsulfonyl)benzoate (10a)] |
| 26 | COC(=O)c1cccc(-c2cc(C)c3ncc(C(N)=O)c(Nc4cccnc4)c3c2)c1 [Methyl 3-(3-carbamoyl-8-methyl-4-(pyridin-3-ylamino)quinolin-6-yl)benzoate (22f)] |
| 28 | COC(=O)c1cccc(-c2cc(C)c3ncc(C(N)=O)c(NCc4ccccc4)c3c2)c1 [Methyl 3-(4-(benzylamino)-3-carbamoyl-8-methylquinolin-6-yl)benzoate (22c)] |

| SMILES | IC50 [µM] |
| --- | --- |
| COc1cccc(Nc2c(C(N)=O)cnc3c(C)cc(S(=O)(=O)c4cccc(C(=O)N(C)C)c4)cc23)c1 [GSK-256066] | 24 |
